The source of these data is publication PMC7018972, “Novel and selective inactivators of Triosephosphate isomerase with anti-trematode activity” (Scientific Reports, 2020).

Data set [1] relates to murine macrophages and human peripheral blood mononuclear cells. Details: method as in PMID 22536349. The conditions noted are these: at 100 µM; cited from earlier work.
Data set [2] has as its target FhTIM (Fasciola hepatica, UniProt S4UI50). As to the kind of experiment: Microscale thermophoresis (MST) binding to FhTIM. The protocol: MST experiments were performed according to the NanoTemper technologies protocol in a Monolith NT.115 (red/blue) instrument (NanoTemper Technologies, München, Germany[36]). With this technique, the diffusion behavior of a labeled protein is measured when an infrared light excites the movement of the protein in capillaries. This behavior is the combination of two effects: the fast, local environment-dependent responses of the fluorophore to the temperature jump and the slower diffusive thermophoresis fluorescence changes. It will be modified when the protein is complexed with increasing amounts of unlabeled partners, leading to titration curves that can be fit for Kd estimation. In practice, FhTIM was labeled with the Monolith His-Tag Labeling Kit RED-tris-NTA (NanoTemper Technologies, München, Germany), as described by the manufacturer. The experiments were performed using 20% and 40% MST power and between 20–80% LED power at 24 °C. The MST traces were recorded using the standard parameters: 5 s MST power off, 30 s MST power on, and 5 s MST power off. The compounds were used at high concentrations (around 5 mM) in the bindings check assay with DMSO at 5% v/v. If the binding check was positive, then the affinity determination was performed with the same experimental settings, with serial 2x dilutions of the compound of interest.
(In general: MST reads how a fluorescent partner responds to local heating, with and without ligand.)

Data set [3] deals with newly excysted juvenile (NEJ) F. hepatica. As to the kind of experiment: In vitro NEJ treatment. To be noted: for IC50: Fasciola hepatica, NEJ. It is filed as cell-based, Fasciola hepatica. The procedure:
F. hepatica metacercariae were acquired from DILAVE, MGAP, Uruguay. NEJ were obtained by in vitro excystement as previously described with minor modifications. Briefly, metacercariae were incubated with 1% sodium hypochlorite for 5 min at room temperature to remove the outer cyst wall and then washed exhaustively with PBS 200 U/mL Penicillin G sulfate, […] streptomycin sulfate, 500 ng/mL amphotericin B, 10 mM HEPES, counted and divided into groups of around 20 parasites that were transferred to 12 wells tissue culture plates. Parasites were maintained at 37 °C, 5% CO2 in modified Basch’s medium. At day 1, compounds were added at the indicated concentrations and 0.5% DMSO was added to control groups; each condition was tested in duplicate. NEJ behavior was monitored under a light microscope (Olympus BX41), every day each well was recorded for a minute in order to assess parasite motility and registered using the following score: 3- normally active; 2- reduced activity (sporadic movement); 1- immotile (dead)[48].

Data set [4] concerns the target T1, rabbit TIM (Oryctolagus cuniculus, UniProt P00939).
T1 construct: made in house; host or cells: Escherichia coli
The experiment in a line: Selectivity assay, inhibition of rabbit TIM. It is filed as biochemical. The conditions noted are these: read-out: inhibition against rabbit TIM. The procedure: Expression and purification of proteins: FhTIM, RabbitTIM and HsTIM were expressed in Escherichia coli and purified as described in the literature[31],[37]. After purification, the enzyme, dissolved in 100 mM triethanolamine, 10 mM EDTA and 1 mM dithiothreitol (pH 8), was precipitated with ammonium sulfate (75% saturation) and stored at 4 °C. Before use, extensive dialysis against 100 mM triethanolamine/10 mM EDTA (pH 7.4) was performed. Protein concentration was determined by absorbance at 280 nm for FhTIM (ε = 33,460 M^−1cm^−1) and for RabbitTIM and HsTIM (ε = 33,460 M^−1cm^−1). Enzymatic activity was determined following the conversion of glyceraldehydes-3-phosphate into dihydroxyacetone phosphate in a coupled enzyme assay. The decrease in absorbance at 340 nm was followed in a multiplate reader VarioskanTM Flash Multimode Reader (Thermo ScientificTM, Waltham, MA, USA) at 38 °C. The reaction mixture (1 mL, pH 7.4) contained 100 mM triethanolamine, 10 mM EDTA, 0.2 mM NADH, 1 mM glyceraldehydes-3-phosphate and 0.9 units of α-glycerol phosphate dehydrogenase. The reaction was initiated by the addition of 5 ng/mL of the TIM of interest. For the inhibition studies, TIM was incubated at a concentration of 5 mg/mL in a buffer containing 100 mM triethanolamine, 10 mM EDTA, pH 7.4 and 10% of DMSO at 37 °C for 1 h. The mixture also contained the compounds, dissolved in DMSO, at the indicated concentrations. After 1 h, 10 µL were withdrawn and added to a final volume of 100 µL of the reaction mixture for the activity assay. The inhibition assay was performed in a 96-well microplate. None of the molecules tested here affected the activity of α-glycerol phosphate dehydrogenase, the enzyme used in the coupled assay. The IC50 value was taken as the concentration of drug needed to reduce the enzymatic activity to 50% by analysis using OriginLab8.5® sigmoidal regression (% of enzymatic activity vs. the logarithm of the compound concentration). The experiments were performed in triplicate in two independent experiments.

Data set [5] deals with Fasciola hepatica TIM (FhTIM) (Fasciola hepatica, UniProt S4UI50). As to the kind of experiment: Inhibition of recombinant FhTIM, coupled enzyme assay. It is filed as biochemical. Put shortly: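 E. coli-expressed FhTIM preincubated with compound 1 h at 37 °C in 100 mM triethanolamine, 10 mM EDTA, pH 7.4, 10% DMSO. Aliquot diluted into coupled assay (1 mM glyceraldehyde-3-phosphate, 0.2 mM NADH, α-glycerol phosphate dehydrogenase, pH 7.4) with NADH decrease at 340 nm, 38 °C. Triplicate, two independent experiments.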
Sequence of Fasciola hepatica TIM (FhTIM) (S4UI50 entry or part of it): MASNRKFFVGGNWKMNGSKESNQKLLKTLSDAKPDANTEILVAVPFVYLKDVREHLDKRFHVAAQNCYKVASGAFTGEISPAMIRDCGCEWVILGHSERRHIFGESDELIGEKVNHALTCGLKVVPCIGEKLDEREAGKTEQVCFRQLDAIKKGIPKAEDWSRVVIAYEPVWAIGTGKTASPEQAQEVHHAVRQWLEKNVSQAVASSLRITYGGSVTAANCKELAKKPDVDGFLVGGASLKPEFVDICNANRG

Where [6] appears, read: Figure 1, ranges of inhibitory activity, read-out: IC50 range.
Where [7] appears, read: recombinant FhTIM, 1 h incubation with compound at 37 °C, read-out: IC50.

Where two headings read alike, the source gives them in different places.

Sequence of FhTIM (S4UI50 entry or part of it): as above
T1 sequence (P00939 whole entry): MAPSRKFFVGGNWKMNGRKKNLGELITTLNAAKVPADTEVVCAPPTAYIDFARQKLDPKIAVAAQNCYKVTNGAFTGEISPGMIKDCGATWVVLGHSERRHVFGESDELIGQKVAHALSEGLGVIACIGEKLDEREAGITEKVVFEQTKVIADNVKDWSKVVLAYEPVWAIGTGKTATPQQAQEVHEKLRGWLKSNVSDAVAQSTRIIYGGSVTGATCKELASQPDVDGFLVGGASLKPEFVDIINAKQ

For `Cc1ccc(-c2nsc(S(=O)(=O)c3ccc(C)cc3)n2)cc1` [Compound 187], in data set [1], the toxicity in words entry is recorded as “non-toxic”. The Kd in data set [2] (24 °C) is 0.07 ± 0.01 µM; in data set [2] (abstract), 0.066 µM. The concentration for half-maximal inhibition (IC50) in data set [3] (incubation time 4 h) is 3 ± 0.5 µM; in data set [5] (setting [6]), < 50 µM; in data set [5] (Table 1S, screening of 340 compounds in FhTIM, table head prints no unit, µM per b8/b9, read-out: IC50) it was < 25 µM; in data set [5] (setting [7]), 4 ± 0.2 µM. Also, in data set [4], the inhibition at 100 µM was < 20%.

As for `CSc1nc2cc(Cl)c(Oc3cccc(Cl)c3Cl)cc2[nH]1` [Compound 1278, triclabendazole, reference compound], the Kd in data set [2] (24 °C) stood at 1000 µM. The half-inhibitory concentration (IC50) was > 50 µM in data set [3] (incubation time 72 h), < 50 µM in data set [5] (setting [6]) and 7 ± 1 µM in data set [5] (setting [7]). In addition, the “concentration of effect against juvenile and adult forms of F. hepatica” value in data set [3] (both forms, at 48 h) is reported as “more than 50 µM”. In addition, the inhibition at 100 µM in data set [4] is < 20%.

Broadly, the Kd is a measure of binding affinity in units of concentration. The term IC50 denotes the concentration that inhibits the measured activity by half. A word on the inhibition: it is the change of the read-out against control, counted positive when it falls.
